Laboratory results: article PMC7157241, “Phenotypic Drug Discovery for Human African Trypanosomiasis: A Powerful Approach” (Tropical Medicine and Infectious Disease, 2020)
Where two headings read alike, the source gives them in different places. Marks after values point to notes of the source that are not given here.

Experiments:
[1] = Mammalian cell cytotoxicity assay (AlamarBlue, 48 h); format: cell-based; conditions: human
Method: Compounds were tested for cytotoxicity against CRL-8155 cells (human lymphoblasts). Cells were grown in culture with serial dilutions of compounds for 48 h and cytotoxicity was assayed using AlamarBlue (Life Technologies, Carlsbad, California CA, USA).

[2] = tested on: T. b. brucei (strain TREU667); test: Anti-parasite efficacy in mice (chronic model); format: in vivo, mouse; conditions: chronic infection model (unpublished)
Method: Groups of six to eight mice were infected with 1 × 10^4 T. b. brucei (strain TREU667) to establish a chronic infection. Treatment began on day 21 post-infection, and mice received 50 mg/kg test compound orally twice per day for 10 days (total of 20 doses) in a 200 μL volume of vehicle. A control group received the vehicle with no compound and another control group received a single intraperitoneal dose of diminazene aceturate at 10 mg/kg on day 21. […] After dosing, parasitemia was monitored via microscopic examination of tail blood slides until 180 days post-infection. Mice were removed from the experiment when parasites were detected in the blood.

[3] = Brain permeability studies in mice (brain to plasma ratio); format: in vivo, mouse; conditions: for Kp at 1 h / Kp at 60 min: 5 mg/kg, mouse; for Kp at 60 min: read-out: B/P Ratio (Mouse)
Method: Test compounds were injected (ip) at 5 mg/kg to three mice in a vehicle consisting of DMSO (5%), Tween 80 (7%), and EtOH (3%) in physiological saline (0.9%) solution [8]. At 1 h post injection, blood was collected, and plasma was separated by centrifugation. Simultaneously, the brain was removed and homogenized in acetonitrile. Concentrations of compound in the plasma and brain were determined via liquid chromatography/tandem mass spectrometry. Calculations of brain levels accounted for 3% volume/weight of blood in the brain.
The long-term goal of the project was to develop a drug for treatment of HAT including late-stage disease involving the central nervous system. […] To assess this, the sixteen hit compounds were injected […] and mice were sacrificed at 60 min (n = 3 mice) for the simultaneous collection of plasma and whole brains for the quantification of compound concentrations. Eleven compounds (1–10, 12) had brain levels of at least 25% of plasma levels and were considered candidates for development. One compound (11) had modest brain permeability of 9%, but was included for further chemistry despite this marginal activity. Four compounds (13–15, 17) had minimal concentrations in the brain (< 2% of plasma levels) and were no longer pursued.

[4] = tested on: T. brucei brucei (strain BF427); test: In vitro parasite growth arrest assay (AlamarBlue); format: cell-based, Trypanosoma brucei brucei
Method: Follow up compounds were tested for antiparasitic activity on T. brucei brucei (strain BF427). Parasites were tested in triplicate in the presence of serial dilutions of compound, and growth was quantified with AlamarBlue.

[5] = tested on: T. brucei rhodesiense STIB 900 strain; conditions: acute infection model; cited from earlier work
[6] = Mouse liver microsome stability; conditions: for half-life: mouse, liver microsomes
[7] = Single dose oral pharmacokinetic study in mice; format: in vivo; conditions: mouse, oral gavage 50 mg/kg
Method: Test compounds were administered to mice by oral gavage followed by blood sampling at intervals of 30, 60, 120, 240, 360, 480, and 1440 min [5, 7]. Compounds were dosed orally at 50 mg/kg in 0.2 mL of dosing solution (7% Tween 80, 3% ethanol, 5% DMSO, 0.9% saline). Experiments were performed with groups of three mice per compound as published. Plasma was separated and extracted with acetonitrile for measurements of the compound concentrations by liquid chromatography/tandem mass spectrometry.
New compounds had T. brucei EC50, mammalian host cell cytotoxicity (CC50), and aqueous solubility assayed per our screening cascade (Figure 2). The cut-off values for further advancement are shown. […] The screening results were continuously reviewed by the chemistry group to define structure activity relationships (SAR). […] Mice were administered compounds by oral gavage at 50 mg/kg and whole blood samples were collected on blotting cards at serial time points. The parameters of maximum blood concentration (Cmax) and the concentration of compound integrated over time (area under curve, AUC) were of primary interest. The general rule was to attain plasma concentrations 10 times above the T. brucei EC50 value for at least eight hours. […]

[8] = Human microsome stability; format: in vitro ADME; conditions: microsomes, Figure 3, read-out: Human microsome t½
[9] = microsomes
[10] = Brain permeability studies in mice (brain to plasma ratio); format: in vivo; conditions: mouse, 5 mg/kg
[11] = design: method as in PMID 28835807; conditions: data are for close analog of Scaffold 9 parent (parent had poor ionization in MS); 60 min following IP dose; cited from earlier work
[12] = tested on: T. b. brucei (strain TREU667); design: method as in PMID 27992217; conditions: cited from earlier work
[13] = Trypanosoma brucei, Figures 4 and 5, read-out: T. brucei EC50
[14] = brain and plasma, intraperitoneal, Figure 3, read-out: Brain:Plasma
[15] = Trypanosoma brucei, Figure 3, Scaffold 1 optimization, read-out: T. brucei EC50
[16] = CRL-8155 cells (lymphoblasts), Figure 3, Scaffold 1 optimization, read-out: CC50
[17] = lymphocytic cell line CRL-8155, read-out: Mammalian CC50
[18] = in vivo, brain to plasma ratio at 60 min following IP dose
[19] = Trypanosoma brucei, selected hit compounds, Table 1, read-out: T. brucei EC50
[20] = in vivo, Figures 4 and 5, read-out: Brain:Plasma ratio
[21] = CRL-8155 cells (lymphoblasts), lymphocytic cell line CRL-8155, read-out: Mammalian CC50
[22] = brain and plasma, brain to plasma ratio at 60 min following IP dose

COc1cc(N2C(=O)CN(Cc3ccc(F)cc3Cl)C2=S)ccc1N(C)C [BA-738]
CC50 at 48 h ([1]; CRL-8155 cells (lymphoblasts), Figure 5, read-out: Mammalian cell CC50): > 50 µM
cures in the chronic infection model [2]: 20 % of mice
Kp at 1 h ([3]; brain and plasma, intraperitoneal, Figures 4 and 5, read-out: Brain:Plasma ratio): 1.68
EC50 [4, 13]: 0.0019 µM
outcome in acute T. brucei infection in mice [5]: cured mice
Mouse liver microsome t½ ([6]; Figures 4 and 5): 660 s

O=C(Nc1ccc(F)c(-c2nc3cc(-c4ccccc4)cnc3[nH]2)c1)N1CCCC1 [HB-175]
AUC [7]: 1236 µmol·min
Kp at 1 h [3, 14]: 0.04
EC50 [4, 15]: 0.004 µM

Cc1nc(C)c(C(=O)Nc2ccc(F)c(-c3nc4ncc(-c5ccccc5Cl)cn4n3)c2)o1 [PN-302]
CC50 at 48 h [1, 16]: > 50 µM
AUC [7]: 55901 µmol·min
Kp at 1 h [3, 14]: 0.23
half-life [8]: > 1.5 h
half-life [6]: > 5400 s

N=C(N)c1ccc(OCCCCCOc2ccc(C(=N)N)cc2)cc1 [Pentamidine isothionate, reference compound]
EC50 ([4]; positive control included in each assay, read-out: EC50 of positive control): 0.0012 ± 0.0003 µM

O=C(Nc1ccc(Cl)c(-c2nc3ncccc3o2)c1)c1ccco1 [Scaffold 1]
CC50 at 48 h ([1]; Figure 3, Scaffold 1 optimization, read-out: CC50): 50 µM
CC50 at 48 h [1, 17]: > 50 µM
Mouse microsome t½ [9]: 48 s
Kp at 60 min [3, 18]: 0.547
EC50 [4, 15]: 0.22 µM
EC50 [4, 19]: 0.218 µM

O=C(NCCc1nc(-c2ccccc2)cs1)c1ccccc1 [Scaffold 2]
CC50 at 48 h [1, 17]: > 50 µM
Kp at 1 h [3, 20]: 0.3
Kp at 60 min [3, 18]: 0.3

O=c1c2ccccc2nc(SCc2cccnc2)n1Cc1ccco1 [Scaffold 3]
CC50 at 48 h [1, 21]: 38 µM
Kp at 60 min [3, 22]: 2.86
EC50 [4, 19]: 0.874 µM

Cc1nn2c(NCCCO)c3c(nc2c1-c1cccs1)CCC3 [Scaffold 6]
CC50 at 48 h [1, 21]: > 100 µM
Kp at 60 min [3, 22]: 0.727
EC50 [4, 19]: 0.307 µM

COc1ccc(-n2nc(C(=O)NCC(=O)N3CCCC(C)C3)c3ccccc3c2=O)cc1Cl (stereo not shown) [Scaffold 7]
CC50 at 48 h [1, 21]: > 50 µM
Kp at 60 min [3, 22]: 0.587
EC50 [4, 19]: 0.657 µM

Fc1ccccc1C1C=C(c2cccnc2)Nc2nnnn21 (stereo not shown) [Scaffold 8]
CC50 at 48 h [1]: 14.3 µM
Kp at 15 min ([10]; in vivo, brain to plasma ratio at 15 min following IP dose (Scaffold 8), read-out: B/P Ratio (Mouse)): 7.11
EC50 [4, 19]: 0.214 µM

COc1ccc(N2C(=O)CN(Cc3ccccc3)C2=S)cc1Cl [Scaffold 9]
CC50 at 48 h [1, 21]: > 50 µM
EC50 [4, 19]: 0.346 µM
B/P Ratio (Mouse) [11]: 0.743 ***

CCn1cc(CN2CCCC(C(=O)Nc3ccc(-c4nc5ccccc5[nH]4)cc3)C2)cn1 (stereo not shown) [Scaffold 10]
Kp at 60 min [3, 22]: 0.224
EC50 [4, 19]: 2.44 µM

O=c1nc(/C=C/c2cn(Cc3ccccc3F)c3ccccc23)cc(C(F)(F)F)[nH]1 [Scaffold 11]
Kp at 60 min ([10]; brain and plasma, intraperitoneal, mice sacrificed at 60 min, n = 3, read-out: brain levels as percent of plasma levels): 0.09
Kp at 60 min [3, 22]: 0.09
EC50 [4, 19]: 3.09 µM

COc1ccc(CNC(=O)CN(c2cccc(C)c2C)S(=O)(=O)c2ccccc2)cc1 [Scaffold 12]
CC50 at 48 h [1, 21]: > 100 µM
Kp at 60 min [3, 22]: 0.267
EC50 [4, 19]: 1.7 µM

Cc1cc(C)c(NC(=O)c2cc(S(=O)(=O)N3CCOCC3)cn2C)c(C)c1 [Scaffold 13]
CC50 at 48 h [1, 21]: > 100 µM
Kp at 60 min [3, 22]: 0.02
EC50 [4, 19]: 1 µM

COCCN1C(=O)c2ccccc2C(C(=O)Nc2ccc(Oc3ccccc3)cc2)C1c1ccc(F)cc1 (stereo not shown) [Scaffold 14]
CC50 at 48 h [1, 21]: > 100 µM
Kp at 60 min [3, 22]: 0.01
EC50 [4, 19]: 0.708 µM

COc1cccc(C2N(c3ccccc3)N=C(C(C)=O)N2c2ccc(C)c(C)c2)c1OCc1ccccc1 (stereo not shown) [Scaffold 15]
CC50 at 48 h [1, 21]: 33 µM
Kp at 60 min [3, 22]: 0
EC50 [4, 19]: 1.5 µM

O=C(CSc1nc2scc(-c3ccccc3)c2c(=O)n1-c1ccccc1)Nc1ccccc1F [Scaffold 16]
CC50 at 48 h [1, 21]: > 100 µM
plasma and brain levels ([3]; 60-min time point): nearly undetectable plasma and brain levels
B/P Ratio (Mouse) ([3]; brain to plasma ratio at 60 min following IP dose): No plasma exposure
EC50 [4, 19]: 0.65 µM

COc1ccc(-c2c(C#N)c(SCc3ccccc3)nc(C)c2C(=O)Nc2ccccc2)cc1 [Scaffold 17]
CC50 at 48 h [1, 21]: > 100 µM
Kp at 60 min [3, 22]: 0
EC50 [4, 19]: 3.5 µM

O=C(Nc1ccc2sc(-c3ccc(F)c(F)c3)nc2c1)N1CC[C@H](F)C1 [Scaffold 45DAP076]
Kp at 1 h [3, 20]: 4
activity in the chronic T. brucei infection model [12]: curative activity
EC50 [4, 13]: 0.035 µM
half-life [6]: > 3600 s

O=C(Nc1ccc(F)c(-c2nc3ncccc3o2)c1)c1ccco1 [Site I: F]
CC50 at 48 h [1, 16]: 99.7 µM
EC50 [4, 15]: 0.08 µM
half-life [6]: 42 s

O=C(Nc1ccc(Cl)c(-c2nc3ncccc3o2)c1)N1CCCC1 [Site II: pyrrolidine]
CC50 at 48 h [1, 16]: 73 µM
EC50 [4, 15]: 0.08 µM
half-life [6]: 48 s

O=C(Nc1ccc(Cl)c(-c2nc3cc(Br)cnc3[nH]2)c1)c1ccco1 [Site III: as shown]
CC50 at 48 h [1, 16]: 200 µM
EC50 [4, 15]: 0.05 µM
half-life [6]: 48 s

O=C(c1ccco1)N(C(=O)c1ccco1)c1ccc(Cl)c(-c2nc3ncccc3o2)c1 [Site V: as shown]
CC50 at 48 h [1, 16]: 86 µM
EC50 [4, 15]: 0.1 µM
half-life [6]: 42 s
